Here are results for 18 molecules from patent US7407940B2, “Antimicrobial hexapeptides” (Helix BioMedix Inc., priority 2005, dated 2008).

One series has as its system Lipoteichoic acid (LTA). Description: LTA binding assay. To be noted: FIG. 7. An excerpt:
Lipoteichoic acid (LTA) is a common cell wall component of gram-positive bacteria including organisms such as S. aureus and P. acnes. The release of LTA during infection can lead to the release of mediators of the host inflammatory response which in turn can result in sepsis (septic shock). For example, when injected into animals, LTA can elicit many of the characteristic features of septic shock, including cytokine production, leukocytopenia, circulatory failure, multiple-organ dysfunction syndrome, and mortality.

The next series deals with Pseudomonas aeruginosa. It is filed as cell-based. Conditions: for MIC: agent alone. Further details: MIC, lipid length SAR: unit not given here. As to the method: (§1) MICs (minimal inhibitory concentrations) were determined for the hexapeptides of interest using a slightly modified version of the NCCLS (National Committee for Clinical Laboratory Standards) broth microdilution method as described previously (Steinberg et al., AAC 41: 1738, 1997). Briefly, antimicrobial agents were prepared as 10× concentrates in the most appropriate solvent. For the hexapeptide, 0.01% acetic acid containing 0.2% bovine serum albumin as a carrier protein was used. Inocula were prepared by resuspending colonies from a BAP (please spell out this term) in medium and adjusting the suspension to match that of a 0.5 McFarland standard. The suspension was diluted into fresh medium (as recommended by NCCLS for the organism) to give 2×10^5 to 7×10^5 CFU/ml for bacteria or 2×10^3 to 7×10^3 CFU/ml for Candida. After dispensing 100 μl aliquots of the microbial suspension into each well of a 96-well polypropylene microtiter plate, 11 μl of test compound was added. The MIC was defined as the lowest concentration of drug which prevented visible turbidity after 16 to 20 hours (bacteria) or 46 to 50 hours (Candida) at 35° C.

For another series, the system named is MRSA. Description: Kill curve in 10% sheep serum-phosphate buffer against MRSA. The class given is cell-based, S. aureus. On the set-up: MRSA count in kill curve: unit not given here.
Another series deals with Trychophyton rubrum. Description: MIC100 against dermatophyte Trychophyton rubrum. It is filed as cell-based. Conditions: T. rubrum; at 10 days. As to the method: (§2) In order to compare the activity of various antimicrobial peptides, including hexapeptide SEQ ID NO:1 (P0666), MIC were determined against the dermatophytes Trychophyton rubrum and Trychophyton mentagrophytes. The concentration of samples investigated were: 2000, 1000, 500, 250 and 125 μg/ml, respectively. The medium used was modified Sabouraud's media without agar. For a 100 mL of modified Sabouraud medium: 3 g of Sabouraud's dextrose broth (Difco) was mixed into 100 mL of deionized water. The pH was adjusted to 7.0 with 0.1 N NaOH. The solution was autoclaved for thirty minutes. 940 μL of medium was poured into sterile 20 mL test tubes with plastic caps and was allowed to cool.
(§3) 50 μL of […] was added to each 20 mL test tube to make the required concentration. A control tube was composed of 50 μL of saline without sample. For the MIC experiments,
(§4) 10 μL of organism suspended in saline was added to the each 20 mL test tube and vortexed slightly. Each of the test tubes was covered in parafilm and maintained on a shaker at 27° C. at a speed of approximately 100 rpm.
(§5) The growth/inhibition of the organism was observed on a daily basis. […] The Minimum Inhibition Concentration (MIC100) for compounds F1 to F10 against fungus Trychophyton rubrum and Trychophyton mentagrophytes at 10 days.

The test system of series [1] is Trychophyton mentagrophytes. Description: MIC100 against dermatophyte Trychophyton mentagrophytes. It is filed as cell-based. Conditions: T. mentagrophytes; at 10 days. As for the experimental part:
as §2, §3, §4, §5

A further series concerns Staphylococcus aureus. The class given is cell-based. As for the experimental part: as §1
For another series, the system named is Candida albicans. The class given is cell-based. As to the method: as §1
On the set-up of series [2]: species or system Sprague-Dawley rats. Conditions: rat, in vivo. An excerpt:
Each wound observed at each dressing change and the wound surface and tissue reaction assessed. There were 5 parameters of wound status that were checked: • i. Wound Film Security—Was the adhesive film used to cover the wound still completely adherent to the skin around the wound? • ii. Wound Surface—What was the exact visual appearance of the wound surface? • iii. Amount of Exudate—How much exudate was trapped under the film? In many cases, accumulated exudate causes the film to lose adherence and the exudates will escape. • iv. Severity of Tissue Reaction—A subjective rating of extent of tissue reaction on a scale of 1 (minimal), 2 (moderate), 3 (extensive). • v. % of Tissue Involved—In some situations, the wound surface contained denatures, friable tissue that could be wiped off with pressure applied to gauze. This test was used to better differentiate denatured tissue from viscous exudates.

The next series relates to S. epidermidis ATCC12228. In words: MIC, broth microdilution, S. epidermidis. Conditions: #86: S. epidermidis ATCC12228. Further details: unit not given beside the values. It is filed as cell-based. As for the experimental part:
as §1
In general terms: Broth dilution looks for growth in wells or tubes with falling amounts of substance.

The next series has as its system P. aeruginosa. It is filed as cell-based. To be noted: combined with SEQ ID NO: 55. As to the method: The fractional inhibitory concentration (FIC) index was used to determine the synergy between antimicrobial agents. Peptide MICs against test microorganisms were determined three times on separate occasions. […]

Where two headings read alike, the source gives them in different places. Where a SMILES comes first, the peptide text is derived from it. Where no end group is shown, it is not given here. [ ]: non-standard residue; d: D form. The star is where a group is joined. 2Nal = N[C@@H](Cc1ccc2ccccc2c1)C(=O)O; Pentadecanoyl = CCCCCCCCCCCCCCC(=O)*; Tridecanoyl = CCCCCCCCCCCCC(=O)*; Myristoyl = CCCCCCCCCCCCCC(=O)*; Lauroyl = CCCCCCCCCCCC(=O)*; code J = not defined here; Octanoyl = CCCCCCCC(=O)*

Consider “SEQ ID NO:72 (Lauroyl-KFKWPW-NH2; SMILES CCCCCCCCCCCC(=O)N[C@@H](CCCCN)C(=O)N[C@@H](Cc1ccccc1)C(=O)N[C@@H](CCCCN)C(=O)N[C@@H](Cc1c[nH]c2ccccc12)C(=O)N1CCC[C@H]1C(=O)N[C@@H](Cc1c[nH]c2ccccc12)C(N)=O)”, for which the “LTA binding (in words)” value in the series on Lipoteichoic acid (LTA) was “binds LTA to the same degree as a typical highly charged alpha-helical amphipathic peptide”.
KFKWPW-NH2 [SEQ ID NO: 1, KFKWPW-NH2]: the “MIC, lipid length SAR” value in the series with Pseudomonas aeruginosa (P.aeruginosa) is 32. Moreover, the “MRSA count in kill curve” value is given as 99200 in the series on MRSA (buffer, 2 mg/ml, 30 min); 62800 in the series with MRSA (buffer, 2 mg/ml, 1 hour); 99200 in the series with MRSA (buffer, 2 mg/ml, 2 hours); 99200 with MRSA (buffer, 2 mg/ml, 3 hours); 99200 with MRSA (buffer, 2 mg/ml, 4 hours); 99200 in the series with MRSA (buffer, 2 mg/ml, 5 hours). Besides, the “MRSA count in kill curve” value with MRSA (serum, 1 mg/ml, 30 min) is 102300; in the series on MRSA (serum, 1 mg/ml, 1 hour), 99600; in the series with MRSA (serum, 1 mg/ml, 2 hours) it was 15110; in the series on MRSA (serum, 1 mg/ml, 3 hours) it was 12080; with MRSA (serum, 1 mg/ml, 4 hours) it was 5020; with MRSA (serum, 1 mg/ml, 5 hours) it was 2570. The “MRSA count in kill curve” value in the series on MRSA (serum, 2 mg/ml, 30 min) is on record as 9800; in the series with MRSA (serum, 2 mg/ml, 1 hour), 3200; in the series on MRSA (serum, 2 mg/ml, 2 hours), 630; with MRSA (serum, 2 mg/ml, 3 hours), 250; in the series with MRSA (serum, 2 mg/ml, 4 hours) it was 70; in the series on MRSA (serum, 2 mg/ml, 5 hours), 50. Besides, the MIC100 (in the series with Trychophyton rubrum; in [1]) was 250 µg/mL in each case.
As to `CCCCCCCCCCCCCC(=O)N[C@@H](CCCCN)C(=O)N[C@@H](Cc1ccccc1)C(=O)N[C@@H](CCCCN)C(=O)N[C@@H](Cc1c[nH]c2ccccc12)C(=O)N1CCC[C@H]1C(=O)N[C@@H](Cc1c[nH]c2ccccc12)C(N)=O` [compound 77] (Myristoyl-KFKWPW-NH2), the “Minimal Inhibitory Concentrations (Mics)” value with Pseudomonas aeruginosa is 64-128 Mg/Ml; with Staphylococcus aureus, 8-16 Mg/Ml; in the series with Candida albicans it was 4-8 Mg/Ml.
The molecule `CCCCCCCC(=O)N[C@@H](CCCCN)C(=O)N[C@@H](Cc1ccccc1)C(=O)N[C@@H](CCCCN)C(=O)N[C@@H](Cc1c[nH]c2ccccc12)C(=O)N1CCC[C@H]1C(=O)N[C@@H](Cc1c[nH]c2ccccc12)C(N)=O` [SEQ ID NO: 55 (P-1032)] (Octanoyl-KFKWPW-NH2) gave a Tissue reaction severity in series [2] of 1.
For FALKALKKLKKALKKAL-NH2 [SEQ ID NO: 86], the MIC100 with Trychophyton rubrum amounted to 1000 µg/mL; in [1] it was 250 µg/mL.
`CCCCCCCCCCCCC(=O)N[C@@H](CCCCN)C(=O)N[C@@H](Cc1ccccc1)C(=O)N[C@@H](CCCCN)C(=O)N[C@@H](Cc1c[nH]c2ccccc12)C(=O)N1CCC[C@H]1C(=O)N[C@@H](Cc1c[nH]c2ccccc12)C(N)=O` [compound 80] (Tridecanoyl-KFKWPW-NH2): the “Minimal Inhibitory Concentrations (Mics)” value in the series with Staphylococcus aureus is recorded as 2-4 Mg/Ml.
Regarding H-KWKWFW-NH2 [compound 3], the results for the “Minimal Inhibitory Concentrations (Mics)” value in the series on Staphylococcus aureus and with Candida albicans were 32-64 Mg/Ml and 64-64 Mg/Ml, respectively.
As for FAKLLAKLAKKLL-NH2 [SEQ ID NO: 89], the MIC100 (in the series on Trychophyton rubrum; in series [1]) was 500 µg/mL each time.
Turning to “KWKWJW-NH2 (KWKW[code J]W-NH2; reading uncertain; also: printed as KWKWJW-NH2) [SEQ ID NO: 60]”, the MIC in the series with S. epidermidis ATCC12228 is more than 128.
As to “SEQ ID NO:83 (Lauroyl-[dK][dF][dK][dW][dP][dW]-NH2; SMILES CCCCCCCCCCCC(=O)N[C@H](CCCCN)C(=O)N[C@H](Cc1ccccc1)C(=O)N[C@H](CCCCN)C(=O)N[C@H](Cc1c[nH]c2ccccc12)C(=O)N1CCC[C@@H]1C(=O)N[C@H](Cc1c[nH]c2ccccc12)C(N)=O)”, in the series with Lipoteichoic acid (LTA), the “LTA binding (in words)” value was “fail to bind LTA”.
For FAKLLAKALKKLL-NH2 [SEQ ID NO: 87], the MIC100 (in the series on Trychophyton rubrum; in series [1]) was 500 µg/mL throughout.
“OCT-KWKWFW-NH2 (Octanoyl-KWKWFW-NH2; SMILES CCCCCCCC(=O)N[C@@H](CCCCN)C(=O)N[C@@H](Cc1c[nH]c2ccccc12)C(=O)N[C@@H](CCCCN)C(=O)N[C@@H](Cc1c[nH]c2ccccc12)C(=O)N[C@@H](Cc1ccccc1)C(=O)N[C@@H](Cc1c[nH]c2ccccc12)C(N)=O) [SEQ ID NO: 56]”: the MIC with S. epidermidis ATCC12228 is given as 4.
In the case of H-RFKWFW-NH2 [compound 7], the “Minimal Inhibitory Concentrations (Mics)” value is recorded as 64-128 Mg/Ml with Staphylococcus aureus and 64-128^1 Mg/Ml in the series on Candida albicans (C. albicans strain 105).
Take `CC(C)C[C@H](NC(=O)[C@H](C)NC(=O)[C@H](CC(C)C)NC(=O)[C@H](CCCCN)NC(=O)[C@H](C)NC(=O)[C@H](CC(C)C)NC(=O)[C@H](CCCCN)NC(=O)[C@H](CCCCN)NC(=O)[C@H](C)NC(=O)[C@H](CC(C)C)NC(=O)[C@H](CCCCN)NC(=O)[C@H](C)NC(=O)[C@H](CC(C)C)NC(=O)[C@H](CCCCN)NC(=O)[C@H](CCCCN)NC(=O)[C@H](C)NC(=O)[C@@H](N)C(C)C)C(N)=O` [SEQ ID NO: 88, VAKKLAKLAKKLAKLAL-NH2]: in series [2], the Amount of exudate entry is “S/y” and the “tissue reaction (in words)” value is recorded as “mild to moderate”.
In turn, “KWKWZW-NH2 (KWKW[2Nal]W-NH2) [SEQ ID NO: 63]” gave an MIC in the series with S. epidermidis ATCC12228 of 2.
`CCCCCCCCCCCC(=O)N[C@@H](CCCCN)C(=O)N[C@@H](Cc1ccccc1)C(=O)N[C@@H](CCCCN)C(=O)N[C@@H](Cc1c[nH]c2ccccc12)C(=O)N1CCC[C@H]1C(=O)N[C@@H](Cc1c[nH]c2ccccc12)C(N)=O` [compound 72] (Lauroyl-KFKWPW-NH2): the “Minimal Inhibitory Concentrations (Mics)” value in the series with Staphylococcus aureus is 4-8 Mg/Ml.
As to polymyxin B [reference compound], the MIC was 0.5 µg/mL against Pseudomonas aeruginosa (P. aeruginosa 100609, tobromycin resistant); 0.5 µg/mL against Pseudomonas aeruginosa (P. aeruginosa H187, wide type); 0.25 µg/mL in the series with Pseudomonas aeruginosa (P. aeruginosa H401, mucoid clinical isolate); 1 µg/mL against Pseudomonas aeruginosa (P. aeruginosa M917, multi-drug resistant clinical isolate). The MIC-PXB-combined with P. aeruginosa (P. aeruginosa 100609) stood at 0.125 µg/mL; in the series on P. aeruginosa (P. aeruginosa H187) it was 0.06 µg/mL; with P. aeruginosa (P. aeruginosa H401), 0.0625 µg/mL; with P. aeruginosa (P. aeruginosa M917), 0.25 µg/mL.
Turning to `CCCCCCCCCCCCCCC(=O)N[C@@H](CCCCN)C(=O)N[C@@H](Cc1ccccc1)C(=O)N[C@@H](CCCCN)C(=O)N[C@@H](Cc1c[nH]c2ccccc12)C(=O)N1CCC[C@H]1C(=O)N[C@@H](Cc1c[nH]c2ccccc12)C(N)=O` [compound 78] (Pentadecanoyl-KFKWPW-NH2), the “Minimal Inhibitory Concentrations (Mics)” value in the series on Staphylococcus aureus is given as 32-64 Mg/Ml.
